This is an account of results in DBAASP.

≈ marks a conversion by molar mass, not a printed value.

Test systems include Alternaria alternata; Cladosporium herbarum; Botrytis cinerea; Escherichia coli K91BK.
Common to all, as to assay: ≥ marks a high value that may be exact or a test limit, other limits are often not marked, values filed in µg/mL are converted to µM
In experiment [1] the test system is Malassezia furfur KCTC 7744.
The test system of experiment [2] is Candida parapsilosis ATCC 22019.
Experiment [3] has as its system Candida albicans ATCC 90028.
Experiment [4] relates to Trichosporon beigelii KCTC 7707.
In experiment [5] the test system is Bacillus subtilis ATCC 6633.
Experiment [6] deals with Staphylococcus aureus ATCC 9144.
Experiment [7] relates to Escherichia coli ATCC 10536.
In experiment [8] the test system is Escherichia coli DH5alpha.
For experiment [9], the system named is Pectobacterium carotovorum subsp. carotovorum DSM 30168.
Experiment [10] has as its system Clavibacter michiganensis subsp. michiganensis DSM 46294.
Experiment [11] concerns Pseudomonas corrugata DSM 7228.
Experiment [12] has as its system Pseudomonas syringae pv. syringae DSM 10604.
The test system of experiment [13] is Xanthomonas vesicatoria DSM 50861.
Experiment [14] relates to Pseudomonas syringae pv. tomato DC3000.
Experiment [15] has as its system Staphylococcus aureus FDA 209P.
Experiment [16] concerns Escherichia coli IFO 3972.
Experiment [17] deals with Streptococcus pneumoniae DSM 11865.
In experiment [18] the test system is Staphylococcus aureus ATCC 25923.
Experiment [19] relates to Escherichia coli DSM 1103.
The subject of experiment [20] is Pseudomonas aeruginosa DSM 1128.
Experiment [21] has as its system Klebsiella pneumoniae DSM 681.
In experiment [22] the test system is Bacillus anthracis Sterne 34F2.
Experiment [23] concerns Bacillus subtilis var. niger ATCC 9372.
Experiment [24] has as its system Escherichia coli KCTC 1682.
Experiment [25] concerns Pseudomonas aeruginosa KCTC 1637.
The test system of experiment [26] is Staphylococcus aureus KCTC 1621.
Experiment [27] deals with Staphylococcus aureus CCARM 3114.
The test system of experiment [28] is Escherichia coli CCARM 1238.
The test system of experiment [29] is Salmonella typhimurium CCARM 8003.
For experiment [30], the system named is Staphylococcus aureus CCARM 3089.
In experiment [31] the test system is Staphylococcus epidermidis KCTC 1917.
Experiment [32] deals with Bacillus subtilis KCTC 3068.
Experiment [33] deals with Escherichia coli CCARM 1229.
Experiment [34] relates to Salmonella typhimurium KCTC 1926.

On to `CC[C@H](C)[C@H](NC(=O)[C@H](C)NC(=O)[C@H](CCCCN)NC(=O)[C@H](CCCN=C(N)N)NC(=O)[C@H](CS)NC(=O)[C@H](CCCN=C(N)N)NC(=O)[C@H](CCCCN)NC(=O)[C@@H](NC(=O)[C@H](CC(N)=O)NC(=O)[C@H](CCCN=C(N)N)NC(=O)[C@H](CCC(=O)O)NC(=O)[C@H](CS)NC(=O)[C@H](CO)NC(=O)[C@@H](NC(=O)[C@H](CCCCN)NC(=O)[C@H](Cc1cnc[nH]1)NC(=O)[C@H](CC(N)=O)NC(=O)CNC(=O)[C@H](CC(C)C)NC(=O)[C@H](CCCCN)NC(=O)[C@H](CCCCN)NC(=O)[C@H](CCSC)NC(=O)[C@@H](N)CCCN=C(N)N)C(C)C)[C@@H](C)O)C(=O)O` [RMKKLGNHKVSCERNTKRCRKAI], for which the MIC was determined as 14.1 µM (≈ 39 µg/mL) in [1], 10 µM (≈ 27.6 µg/mL) in experiment [2], 10 µM (≈ 27.6 µg/mL) in [3] and 20 µM (≈ 55.1 µg/mL) in experiment [4].

For the molecule `CC[C@H](C)[C@H](NC(=O)[C@H](CCCN=C(N)N)NC(=O)[C@@H](NC(=O)[C@@H](NC(=O)[C@@H]1CCCN1C(=O)[C@@H](NC(=O)[C@@H](NC(=O)[C@H](C)NC(=O)[C@@H]1CCCN1C(=O)CNC(=O)[C@H](Cc1ccc(O)cc1)NC(=O)[C@H](CCCCN)NC(=O)[C@H](CCCCN)NC(=O)[C@H](Cc1c[nH]c2ccccc12)NC(=O)[C@H](C)NC(=O)[C@H](CCCN=C(N)N)NC(=O)[C@H](CC(C)C)NC(=O)[C@@H](NC(=O)[C@H](CCCCN)NC(=O)[C@H](CCCN=C(N)N)NC(=O)CNC(=O)[C@H](CC(C)C)NC(=O)[C@H](CO)NC(=O)[C@H](CCCN=C(N)N)NC(=O)[C@H](CC(C)C)NC(=O)CNC(=O)CN)[C@@H](C)CC)[C@@H](C)CC)C(C)C)[C@@H](C)CC)[C@@H](C)CC)C(N)=O` [GGLRSLGRKILRAWKKYGPAIVPIIRI], the minimal inhibitory concentration (MIC) came to 1.7 µM (≈ 5.15 µg/mL) in experiment [5], 3.8 µM (≈ 11.5 µg/mL) in experiment [6], 2.5 µM (≈ 7.58 µg/mL) in [7] and 2.7 µM (≈ 8.19 µg/mL) in experiment [8].

As for `CC(C)C[C@H](NC(=O)[C@H](C)NC(=O)[C@H](CCCCN)NC(=O)[C@@H](N)CC(C)C)C(=O)N[C@@H](CCCN=C(N)N)C(=O)N[C@@H](CCCCN)C(=O)N[C@@H](C)C(=O)N[C@@H](CC(C)C)C(=O)N[C@@H](CCCCN)C(=O)N[C@@H](Cc1cnc[nH]1)C(=O)N[C@@H](CC(C)C)C(=O)N[C@@H](C)C(N)=O` [LKALRKALKHLA], the MIC in experiment [9] is 29.4 µM (≈ 40 µg/mL); in [10], 29.4 µM (≈ 40 µg/mL); in experiment [11], 29.4 µM (≈ 40 µg/mL); against Alternaria alternata, at least 73.4 µM; in [12], 7.34 µM (≈ 9.99 µg/mL); in experiment [13] it was 14.7 µM (≈ 20 µg/mL). For the same molecule, the figures for the MIC (in experiment [14]; against Cladosporium herbarum; in the experiment on Botrytis cinerea) were 1.84 µM (≈ 2.5 µg/mL), 14.7 µM (≈ 20 µg/mL) and at least 73.4 µM, respectively.

Consider `NCCCC[C@H](NC(=O)[C@H](CCCN=C(N)N)NC(=O)[C@H](CCCN=C(N)N)NC(=O)[C@H](CCCN=C(N)N)NC(=O)[C@@H]1CCCN1)C(=O)O` [PRRRK], for which the MIC in experiment [15] and in [16] was at least 500 µM throughout.

In the case of `CC[C@H](C)[C@H](NC(=O)[C@H](CCC(N)=O)NC(=O)[C@H](CCC(=O)O)NC(=O)[C@H](CCC(=O)O)NC(=O)[C@H](CCCCN)NC(=O)[C@@H]1CCCN1C(=O)[C@H](CC(C)C)NC(=O)[C@H](C)NC(=O)[C@H](CO)NC(=O)[C@H](CC(C)C)NC(=O)[C@@H](NC(=O)[C@H](C)N)C(C)C)C(=O)NCC(=O)N[C@@H](CCCCN)C(=O)N[C@@H](C)C(=O)N[C@@H](CO)C(=O)N[C@H](C(=O)N[C@@H](CCCN=C(N)N)C(=O)NCC(=O)N[C@@H](CCCN=C(N)N)C(=O)N[C@@H](CCCCN)C(=O)N[C@@H](C)C(=O)N[C@@H](C)C(=O)N[C@@H](CCCN=C(N)N)C(=O)N[C@@H](CCCN=C(N)N)C(=O)N[C@@H](CCCCN)C(=O)N[C@@H](CCCCN)C(=O)O)[C@@H](C)O` [AVLSALPKEEQIGKASTRGRKAARRKK], the minimum inhibitory concentration (MIC) was at least 102 µM in experiment [17]; over 102 µM in [18]; at least 102 µM in [19]; at least 102 µM in [20]; at least 102 µM in experiment [21].

Consider `CC(=O)N[C@@H](CCCN=C(N)N)C(=O)NCC(=O)N[C@@H](CCCN=C(N)N)C(=O)NCC(=O)N[C@@H](CCCCN)C(=O)N[C@@H](CCC(N)=O)C(=O)NCC(=O)NCC(=O)N[C@@H](CCCCN)C(=O)N[C@H](C(=O)N[C@@H](CCCN=C(N)N)C(=O)N[C@@H](C)C(=O)N[C@@H](CCCCN)C(=O)N[C@@H](C)C(=O)N[C@@H](CCCCN)C(=O)N[C@H](C(=O)N[C@@H](CCCN=C(N)N)C(=O)N[C@@H](CO)C(=O)N[C@@H](CO)C(N)=O)[C@@H](C)O)C(C)C` [RGRGKQGGKVRAKAKTRSS], for which the MIC (against Escherichia coli K91BK; in experiment [22]; in experiment [23]) was at least 100 µM throughout.

`CC[C@H](C)[C@H](NC(=O)[C@H](C)NC(=O)[C@H](CC(C)C)NC(=O)[C@H](Cc1c[nH]c2ccccc12)NC(=O)[C@H](CC(C)C)NC(=O)[C@@H](N)CCCN=C(N)N)C(=O)NCC(=O)N[C@@H](CCCN=C(N)N)C(=O)NCC(N)=O` [RLWLAIGRG]: the minimal inhibitory concentration (MIC) is 8 µM (≈ 8.32 µg/mL) in experiment [24]; at least 32 µM in [25]; 16 µM (≈ 16.6 µg/mL) in experiment [26]; at least 32 µM in experiment [27]; 8 µM (≈ 8.32 µg/mL) in [28]; at least 32 µM in experiment [29]. Further, the minimal inhibitory concentration (MIC) in [30] is 16 µM (≈ 16.6 µg/mL); in experiment [31], 4 µM (≈ 4.16 µg/mL); in [32], 8 µM (≈ 8.32 µg/mL); in [33], 16 µM (≈ 16.6 µg/mL); in experiment [34], at least 32 µM.
